Source: patent publication US20120116027A1, “PROCESS FOR THE PURIFICATION OF HUMAN GROWTH HORMONE POLYPEPTIDES USING AFFINITY RESINS COMPRISING SPECIFIC LIGANDS” (priority 2008, published 2012)
Where a SMILES comes first, the peptide text is derived from it. [ ]: non-standard residue; d: D form. The star is where a group is joined. X1 = O=C(c1ccc2ccccc2c1O)*; Dap = NC[CH](N)C(=O)O; Aib = CC(C)(N)C(=O)O

Experiments:
wild type hGH = wild type hGH (Homo sapiens, UniProt P01241); assay: Binding capacity for wild type hGH of ligands synthesized on Fractogel Amino (1 mL columns); settings: ligand on Fractogel Amino; for Measured binding capacity (mg hGH/mL resin): load 5 mg/mL hGH in 25 mM Tris-HCl pH 7.50, 0.5 mL/min, elution gradient 1M NaCl/25 mM Tris pH 7.5
Procedure: (§1) were stepwise synthesized on Fractogel Amino (Merck) with amine loading 0.16 mmol/g and particle size 40-90 μm. The resins were washed thoroughly with DMF, DCM, and ethanol and packed in 1 mL columns and washed with 0.2 M NaOH and then with 20% ethanol, and equilibrated with 25 mM Tris-HCl at pH=7.50 (buffer A).
Binding capacity for wild type hGH was measured for each resin sample by • a) loading the column with a 5 mg/mL solution of hGH in buffer A at a flow rate of 0.5 mL/min, • b) washing the column with at least 10 column volumes of buffer A until a steady low UV absorbance of the buffer leaving the column was observed, • c) eluting the protein by applying a gradient of 1M NaCl/25 mM Tris at pH=7.5 (buffer B) • d) cleaning the column with 0.2 M NaOH, then with buffer B, and then with buffer A.
The binding capacity was calculated by integrating the UV signal during step (c) and indicated for each ligand above.

hGH [1] = molecular target: T1, hGH (Homo sapiens, UniProt P01241); assay: Resin selectivity test with hGH fermentation broth, judged by SDS page gels of the eluate; settings: ligand on Fractogel Amino, hGH fermentation broth diluted five times with buffer A
T1 construct: made in house; host or cells: E. coli
Procedure: as §1
Resin selectivity was tested by • (a) loading the column with hGH fermentation broth diluted five times with buffer A • (b) washing the column with at least 10 column volumes of buffer A until a steady low UV absorbance of the buffer leaving the column was observed, • (c) eluting the protein by applying a gradient of buffer B • (d) cleaning the column with 0.2 M NaOH, then with buffer B, and then with buffer A.
“Observed selectivity” was judged by SDS page gels of the eluate […] and indicated for each ligand above. An example of a resin with “very good” selectivity (ligand L11 on Fractogel) and an example of a resin with “moderate” selectivity (ligand L6 on Fractogel) are given in FIG. 3.

hGH [2] = molecular target: T1, hGH; assay: Dynamic 10% BT capacity of ligand L10 on Fractogel Amino M; assay type: binding; settings: load 50 mM BisTris-HCl pH 6.50, 0.5 mL/min (150 cm/h), 15° C.
Procedure: (§2) Ligand L10 from Example 1 was synthesized step-wise on Fractogel Amino M (Supplied by Merck KgaA), and the resulting affinity resin was packed in Tricorn 5/50, 1 mL (GE Healthcare).
(§3) hGH standard: hGH was dissolved to 20 mg/mL in freshly made 50 mM NH41-1CO3, then diluted to 2 or 3.3 mg/mL with Buffer A (50 mM Tris-HCl, pH=7.50, T=15° C. (20° C. in Äkta)).
(§4) hGH micro-filtrate buffer: 2.61 mg/mL hGH E. coli micro-filtrate from hGH harvest. A frozen 15 mL sample was thawed at room temperature and filtered using a syringe-driven filter ([…]). Diluted to 0.52 mg hGH/mL with Buffer A.
(§5) Buffer A1: 50 mM BisTris-HCl, pH=6.50, T=15° C. (20° C. in Äkta), flow 0.5 mL/min (150 cm/h)
(§6) Buffer Z1: 25 mM Tris-HCl, 1M NaCl, pH=7.50, T=15° C. (20° C. in Äkta), flow 0.5 mL/min (150 cm/h)

hGH [3] = assay: as above; assay type: binding, human; settings: load 50 mM BisTris-HCl pH 6.50, 0.5 mL/min (150 cm/h), 15° C.
Procedure: as §2, §3, §4, §5, §6

hGH [4] = molecular target: T1, hGH; assay: Affinity purification of hGH from E. coli micro-filtrate with ligand L10 resin (purity and recovery); settings: load 50 mM BisTris-HCl pH 6.25
Procedure: as §2, §4
An elution buffer of 200 mM Tris-HCl, pH 8.00, 1 M NaCl, 30% propylene glycol results in high recovery of hGH. This elution buffer and the aforementioned 50 mM BisTris-HCl, pH 6.5 load buffer was used. The column was overloaded with hGH. The results from an experiment using these conditions are shown below:
The loading buffer was changed to 50 mM BisTris-HCl at pH 6.25 and different elution buffers at pH 7.25, 7.50 and 8.00 were tested.
Chromatograms and gels are shown in FIG. 8 for the run with the following conditions: Load buffer: 50 mM BisTris at pH 6.25 and Elution buffer: 50 mM BisTris at pH 8.00

hGH [5] = molecular target: T1, hGH; assay: Evaluation of ligand synthesized directly on Fractogel in 5 mL scale (capacity, recovery, purity); assay type: binding; settings: load 50 mM BisTris pH 6.25, elution 50 mM BisTris pH 8.00 gradient; for Dynamic 10% BT capacity for micro-filtrate hGH / Dynamic 10% BT capacity for pure hGH: 2 mL/min
Procedure: Ligand L14 from Example 1 was synthesized directly on Fractogel. The resin was evaluated in 5 mL scale.
Load buffer: 50 mM BisTris at pH 6.25
Elution buffer: 50 mM BisTris at pH 8.00 gradient
Temperature: 15° C. (20° measured by Äkta)
Ligand L16 from Example 1 was synthesized directly on Fractogel Amino. This resin was evaluated in 5 mL scale.

wild type hGH, sequence (P01241 27-217): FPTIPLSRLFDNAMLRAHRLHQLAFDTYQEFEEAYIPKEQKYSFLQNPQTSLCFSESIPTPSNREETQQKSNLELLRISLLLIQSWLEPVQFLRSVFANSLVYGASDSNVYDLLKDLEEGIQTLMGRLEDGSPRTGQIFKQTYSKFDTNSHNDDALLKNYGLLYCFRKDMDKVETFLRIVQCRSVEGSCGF
T1 sequence (P01241 27-217): as above

Measured binding capacity (mg hGH/mL resin) (wild type hGH)	Observed selectivity (hGH [1])	Structure (SMILES)	other results
14	Moderate	N=C(N)NCCC[C@H](N)C(=O)N[C@@H](Cc1ccc(O)cc1)C(=O)N[C@@H](CNC(=O)C1c2ccccc2Oc2ccccc21)C(=O)O [L1]	–
7	Good	N=C(N)NCCC[C@H](NC(=O)[C@@H](N)Cc1ccccc1)C(=O)N[C@@H](CNC(=O)C1c2ccccc2Oc2ccccc21)C(=O)O [L2]	–
1	Good	N[C@@H](Cc1ccccc1)C(=O)N[C@@H](Cc1ccccc1)C(=O)N[C@@H](CNC(=O)C1c2ccccc2Oc2ccccc21)C(=O)O [L4]	–
2	Good	Cc1nn(-c2ccccc2)nc1C(=O)NC[C@H](NC(=O)[C@H](Cc1ccccc1)NC(=O)[C@@H](N)Cc1c[nH]c2ccccc12)C(=O)O [L5]	–
13	Moderate	NCCCC[C@H](NC(=O)[C@@H](N)Cc1ccccc1)C(=O)N[C@@H](CNC(=O)c1scc(S(=O)(=O)c2ccccc2)c1N)C(=O)O [L6]	–
2	Good	CC[C@@H](C)[C@H](NC(=O)[C@@H](N)Cc1c[nH]c2ccccc12)C(=O)N[C@@H](CNC(=O)c1scc(S(=O)(=O)c2ccccc2)c1N)C(=O)O [L7]	–
6	Moderate	CC[C@H](C)[C@H](N)C(=O)N[C@@H](Cc1ccc(O)cc1)C(=O)N[C@@H](CNC(=O)c1scc(S(=O)(=O)c2ccccc2)c1N)C(=O)O [L8]	–
10	Good	N=C(N)NCCC[C@H](N)C(=O)N[C@@H](Cc1ccccc1)C(=O)N[C@@H](CNC(=O)C1CC(=O)c2ccccc21)C(=O)O (stereo partly shown) [L9]	–
3	Very good	CC[C@H](C)[C@H](N)C(=O)N[C@@H](Cc1ccccc1)C(=O)N[C@@H](CNC(=O)c1c2c(nc3ccccc13)CCCC2)C(=O)O [L10]	Dynamic 10% BT capacity (purified hGH) (hGH [2]): 6.7 mg/mL; dynamic 10% BT capacity for hGH micro-filtrate (hGH [3]): 3.22 mg/mL; Purity of eluate (hGH [4]; Elution pH 7.25): 91%; Purity of eluate (hGH [4]; Elution pH 7.50): 85%; Purity of eluate (hGH [4]; Elution pH 8.00): 85%
2	Very good	N[C@@H](Cc1ccccc1)C(=O)N[C@@H](Cc1ccccc1)C(=O)N[C@@H](CNC(=O)c1c2c(nc3ccccc13)CCCC2)C(=O)O [L11]	–
2	Good	O=C(NC[C@H](NC(=O)[C@H]1CCCN1C(=O)[C@H]1CCCN1)C(=O)O)c1c2c(nc3ccccc13)CCCC2 [L12]	–
>10	Moderate	C[C@@H](O)[C@H](NC(=O)[C@@H](N)CCCNC(=N)N)C(=O)N[C@@H](CNC(=O)c1c2c(nc3ccccc13)CCCC2)C(=O)O [L13]	–
>5	Good	NCCCC[C@H](N)C(=O)N[C@@H](Cc1ccccc1)C(=O)N[C@@H](CNC(=O)c1c2c(nc3ccccc13)CCCC2)C(=O)O [L14]	Purity (hGH [5]): 71%; Dynamic 10% BT capacity for micro-filtrate hGH (hGH [5]): 6.7 mg/mL; Dynamic 10% BT capacity for pure hGH (hGH [5]): 16.3 mg/mL
>5	Good	Cc1nc2ccccn2c1C(=O)NC[C@H](NC(=O)[C@H](CCCNC(=N)N)NC(=O)[C@@H](N)Cc1ccccc1)C(=O)O [L15]	–
>10	Moderate	CC[C@@H](C)[C@H](N)C(=O)N[C@@H](CCCCN)C(=O)N[C@@H](CNC(=O)c1c(C)nc2ccccn12)C(=O)O [L16]	Purity (hGH [5]): 70%; Dynamic 10% BT capacity for micro-filtrate hGH (hGH [5]): 5.7 mg/mL; Dynamic 10% BT capacity for pure hGH (hGH [5]): 11.9 mg/mL
<0.5	–	CC(O)C(N)C(=O)NC(CC(=O)O)C(=O)NC(CNC(=O)c1ccc2nccnc2c1)C(=O)O (stereo not shown) [L17]	–
<0.5	–	Cc1ccc([N+](=O)[O-])c(C(=O)NCC(NC(=O)C(Cc2c[nH]cn2)NC(=O)C(N)CC(=O)O)C(=O)O)c1 (stereo not shown) [L18]	–
–	–	CC(C)(NC(=O)C(CNC(=O)c1ccc2ccccc2c1O)NC(=O)C(Cc1ccc(O)cc1)NC(=O)C(N)CCCNC(=N)N)C(=O)O (stereo not shown) [L19] (H-RY[Dap](X1)[Aib]-OH; configuration not given here)	binding capacity (wild type hGH; same procedures as Example 1): < 0.5 mg/mL

Structure (SMILES)	Measured binding capacity (mg hGH/mL resin) (wild type hGH)	Observed selectivity (hGH [1])	other results
N[C@@H](Cc1ccc(O)cc1)C(=O)N[C@@H](Cc1ccccc1)C(=O)N[C@@H](CNC(=O)C1c2ccccc2Oc2ccccc21)C(=O)O [L3]	5	Moderate	–
